Results reported in patent publication US8088758B2, “17β-hydroxysteroid dehydrogenase type I inhibitors” (Abbott Products GmbH, priority 2003, dated 2012).

Target: T1, recombinant human 17β-hydroxysteroid dehydrogenase type 1 (Homo sapiens, UniProt P14061)
T1 construct: made in house; host or cells: Sf9 insect cells (baculovirus, Bac to Bac Expression System)
T1 sequence (P14061 1-328): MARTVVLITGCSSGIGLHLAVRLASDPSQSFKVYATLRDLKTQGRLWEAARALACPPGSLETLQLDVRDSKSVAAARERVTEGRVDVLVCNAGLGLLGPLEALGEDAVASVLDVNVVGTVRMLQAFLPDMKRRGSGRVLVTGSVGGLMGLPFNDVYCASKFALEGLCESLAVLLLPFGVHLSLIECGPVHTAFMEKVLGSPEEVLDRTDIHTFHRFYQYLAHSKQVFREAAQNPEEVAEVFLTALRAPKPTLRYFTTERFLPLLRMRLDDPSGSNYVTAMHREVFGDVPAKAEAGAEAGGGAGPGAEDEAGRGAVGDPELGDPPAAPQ
Experiment: Inhibition of recombinant human 17β-hydroxysteroid dehydrogenase type 1 (conversion of 3H-estrone to estradiol, HPLC)
Assay type: biochemical
Details: 30 nM 3H-estrone, 1 mM NADPH, 30 min at RT; for inhibition at 0.1 µM: inhibitor 100 nM, read-out: Inhibition of rec. 17β-HSD1 (% inhibition), 100 nM; for inhibition at 1 µM: inhibitor 1 μm, read-out: Inhibition of rec. 17β-HSD1 (% inhibition), 1 μm
Description: 1. Inhibition of the 17β-hydroxysteroid Dehydrogenase Type 1 Enzyme
17β-HSD1 Purification: Recombinant baculovirus was generated by the “Bac to Bac Expression System” (Invitrogen). Recombinant bacmid was transfected to Sf9 insect cells using “Cellfectin Reagent” (Invitrogen). 60 h later cells were harvested; the microsomal fraction was isolated as described by Puranen et al. 1994. Aliquots were stored frozen until determination of enzymatic activity.
Assay—Inhibition of Recombinant Human 17β-hydroxysteroid Dehydrogenase Type 1:
Recombinant protein (0.1 μg/ml) was incubated in 20 mM KH2PO4 pH 7.4 with 30 nM 3H-estrone and 1 mM NADPH for 30 min at RT, in the presence of potential inhibitors at concentrations of 1 μM or 0.1 μM. Inhibitor stock solutions were prepared in DMSO. Final concentration of DMSO was adjusted to 1% in all samples. The enzyme reaction was stopped by addition of 10% trichloroacetic acid (final concentration). Samples were centrifuged in a microtiter plate at 4000 rpm for 10 min. Supernatants were applied to reverse phase HPLC on a Waters Symmetry C18 column, equipped with a Waters Sentry Guard column. Isocratic HPLC runs were performed at RT at a flow rate of 1 ml/min of acetonitrile:water 48:52 as running solvent. Radioactivity was monitored in the eluate by a Packard Flow Scintillation Analyzer. Total radioactivity for estrone and estradiol were determined in each sample and percent conversion of estrone to estradiol was calculated according to the following formula:
Percent inhibition was calculated as follows: % inhibition=100−% conversion

| Structure (SMILES) | inhibition at 0.1 µM [%] | inhibition at 1 µM [%] |
| --- | --- | --- |
| C[C@]12CC[C@@H]3c4ccc(O)cc4CC[C@H]3[C@@H]1[C@H](CCCC(=O)NCc1ccc(F)cc1F)CC2=O [Example 37, N-(2,4-Difluoro-benzyl)-4-(3-hydroxy-17-oxo-estra-1,3,5(10)-trien-15β-yl)-butyramide] | 47.4 | 87.2 |
| COc1ccc2c(c1)CCC1C2CC[C@]2(C)C(=O)C[C@H](C(=O)Nc3ncc(C)s3)C12 (some centres unmarked) [Example 105] | 33.8 | 81 |
| COc1ccc2c(c1)CC[C@H]1[C@@H]3[C@H](CCCNC(=O)NC4CCCCC4)CC(=O)[C@@]3(C)CC[C@H]21 [Example 450] | 34 | 80.7 |
| COc1ccc2c(c1)CCC1C2CC[C@]2(C)C(=O)C[C@H](C(=O)N(C)Cc3cccc4ccccc34)C12 (some centres unmarked) [Example 152] | 25.6 | 41.4 |
| COc1ccc2c(c1)CC[C@H]1[C@@H]3[C@H](CCCCC(=O)NCc4ccc(Cl)cc4)CC(=O)[C@@]3(C)CC[C@H]21 [Example 343] | 47.1 | 86 |
| Cc1cccc(S(=O)(=O)N(C)C[C@H]2CC(=O)[C@@]3(C)CC[C@@H]4c5ccc(O)cc5CC[C@H]4[C@H]23)c1 [Example 694] | 34.6 | 87.3 |
| COc1ccc2c(c1)CC[C@H]1[C@@H]3[C@H](CCCCC(=O)NCCc4c[nH]c5c(C)cccc45)CC(=O)[C@@]3(C)CC[C@H]21 [Example 347] | 38 | 77.2 |
| COc1ccc2c(c1)CC[C@H]1[C@@H]3[C@H](CCCCCC(=O)NCc4ccco4)CC(=O)[C@@]3(C)CC[C@H]21 [Example 350] | 27.7 | 80.7 |
| COc1ccc2c(c1)CC[C@H]1[C@@H]3[C@H](CCCCC(=O)NCc4ccco4)CC(=O)[C@@]3(C)CC[C@H]21 [Example 333] | 47.9 | 91 |
| COc1ccc2c(c1)CC[C@H]1[C@@H]3[C@H](CCCCC(=O)NC4CC4)CC(=O)[C@@]3(C)CC[C@H]21 [Example 330] | 25.2 | 75.9 |
| COc1ccc2c(c1)CC[C@H]1[C@@H]3[C@H](CCC(=O)N(C)C4CCCCC4)CC(=O)[C@@]3(C)CC[C@H]21 [Example 313] | 62.6 | 93 |
| C[C@]12CC[C@@H]3c4ccc(O)cc4CC[C@H]3[C@@H]1[C@H](CCCC(=O)N1CCOCC1)CC2=O [Example 1, 3-Hydroxy-15β-(4-morpholin-4-yl-4-oxo-butyl)-estra-1,3,5(10)-trien-17-one] | 49.9 | 80.2 |
| C[C@]12CC[C@@H]3c4ccc(O)cc4CC[C@H]3[C@@H]1[C@@H](CCCC(=O)NCc1ccccc1)CC2=O [Example 39, N-Benzyl-4-(3-hydroxy-17-oxo-estra-1,3,5(10)-trien-15α-yl)-butyramide] | 41.8 | 82.4 |
| CN(C[C@H]1CC(=O)[C@@]2(C)CC[C@@H]3c4ccc(O)cc4CC[C@H]3[C@H]12)S(=O)(=O)c1cccc(Cl)c1 [Example 693] | 25.8 | 80.1 |
| CN(C[C@H]1CC(=O)[C@@]2(C)CC[C@@H]3c4ccc(O)cc4CC[C@H]3[C@H]12)S(=O)(=O)c1cc(S(=O)(=O)c2ccccc2)cs1 [Example 696] | 35.7 | 80.5 |
| COc1ccc(NC(=O)NCCC[C@@H]2CC(=O)[C@@]3(C)CC[C@@H]4c5ccc(OC)cc5CC[C@H]4[C@H]23)cc1 [Example 446] | 72.4 | 94.2 |
| CCCCNC(=O)CCCC[C@@H]1CC(=O)[C@@]2(C)CC[C@@H]3c4ccc(OC)cc4CC[C@H]3[C@H]12 [Example 345] | 33 | 85.6 |
| C[C@]12CC[C@@H]3c4ccc(O)cc4CC[C@H]3[C@@H]1[C@@H](CNS(=O)(=O)c1ccccc1)CC2=O [Example 664] | 60.5 | 92.7 |
| COc1ccc2c(c1)CC[C@H]1[C@@H]3[C@H](CCCCCC(=O)NCc4ccccc4OC)CC(=O)[C@@]3(C)CC[C@H]21 [Example 360] | 41.5 | 85.6 |
| COc1cccc(NC(=O)NCCC[C@@H]2CC(=O)[C@@]3(C)CC[C@@H]4c5ccc(OC)cc5CC[C@H]4[C@H]23)c1 [Example 443] | 39.8 | 84.1 |
| COc1ccc2c(c1)CC[C@H]1[C@@H]3[C@H](CCCCCC(=O)NCCc4c[nH]c5c(C)cccc45)CC(=O)[C@@]3(C)CC[C@H]21 [Example 367] | 51.5 | 73.5 |
| C[C@]12CC[C@@H]3c4ccc(O)cc4CC[C@H]3[C@@H]1[C@H](CCCC(=O)NCc1ccccc1)CC2=O [Example 3A, N-Benzyl-4-(3-hydroxy-17-oxo-estra-1,3,5(10)-trien-15β-yl)-butyramide] | 51.6 | 84.1 |
